Data from publication PMC10933344, “A lncRNA Dleu2-encoded peptide relieves autoimmunity by facilitating Smad3-mediated Treg induction” (EMBO Reports, 2024).

Test system: CD4+ T cells in spleen of EAE mice
Assay: Flow cytometry of spleen T cells of treated EAE mice
Assay type: in vivo, mouse
Conditions: 100 μg i.v.
Procedure: Figure 5 Dleu2-17aa attenuates EAE by promoting Treg cells. (A) Schematic diagram of MOG-induced EAE and treatment strategies with Dleu2-17aa, scrPEP, and Glatiramer. Mice received 100 μg of Dleu2-17aa or scrPEP every 3 days via i.v. injection or 150 μg of Glatiramer every day for seven times via s.c. on days 9 to 15. (B) Clinical scores were examined daily from day 9 using a scoring system ranging from 0 (no sign) to 5 (complete paralysis or dead). The x-axis represents experimental days, and the y-axis represents symptom severity (n = 8–9). (C) Representative Luxol fast blue (LFB) and hematoxylin and eosin staining (H&E) staining sections for treated EAE spinal cord. Scale bars: 100 μm. (D) Histopathology scores of inflammations and demyelination in treated EAE mice spinal cord using a scoring system ranging from 0 (no inflammatory cells or demyelination) to 4 (extensive inflammatory cells infiltration or confluent foci of demyelination) (n = 5–8). (E) Representative dot plots (left panel) and frequency (right panel) of CD44^hiCD62L^lo activated T cells, Foxp3^+ Treg cells, IL-17A^+ Th17 cells, and IFN-γ^+ Th1 cells gated on CD4^+ T cells in the spleen 14 days post immunization of MOG (n = 3). (F) Representative dot plots and frequency of CD4^+, Foxp3^+ Treg cells, and IFN-γ^+ Th1 cells gated on CD4^+ T cells in the CNS 14 days post immunization of MOG (n = 3). Data information: n indicates biological replicate. Error bars are mean ± SEM; *P < 0.05, **P < 0.01, and ***P < 0.001, n.s. indicates no significant difference. Statistical analysis was by two-way ANOVA for (B) and two-tailed Student’s t-test for (D–F). Source data are available online for this figure. TEXT PRINTED IN THE PICTURE: (E) scrPEP: Spleen: CD62L-PE-DF594 / CD44-PE: 78.2; Spleen: Foxp3-PE / CD4-APC: 7.38; Spleen: IFN-γ-Percp-cy5.5 / Il-17A-FITC: 4.67; Spleen: IFN-γ-Percp-cy5.5 / Il-17A-FITC: 0.18; Spleen: IFN-γ-Percp-cy5.5 / Il-17A-FITC: 94.7; Spleen: IFN-γ-Percp-cy5.5 / Il-17A-FITC: 0.44 | (E) Dleu2-17aa: Spleen: CD62L-PE-DF594 / CD44-PE: 37.2; Spleen: Foxp3-PE / CD4-APC: 12.9; Spleen: IFN-γ-Percp-cy5.5 / Il-17A-FITC: 2.83; Spleen: IFN-γ-Percp-cy5.5 / Il-17A-FITC: 0.26; Spleen: IFN-γ-Percp-cy5.5 / Il-17A-FITC: 96.1; Spleen: IFN-γ-Percp-cy5.5 / Il-17A-FITC: 0.79 | (F) scrPEP: CNS: FSC / CD4-APC: 9.03; CNS: Foxp3-PE / CD4-APC: 8.47; CNS: IFN-γ-Percp-cy5.5 / Il-17A-FITC: 22.9; CNS: IFN-γ-Percp-cy5.5 / Il-17A-FITC: 2.00; CNS: IFN-γ-Percp-cy5.5 / Il-17A-FITC: 69.7; CNS: IFN-γ-Percp-cy5.5 / Il-17A-FITC: 5.44 | (F) Dleu2-17aa: CNS: FSC / CD4-APC: 3.33; CNS: Foxp3-PE / CD4-APC: 15.5; CNS: IFN-γ-Percp-cy5.5 / Il-17A-FITC: 13.9; CNS: IFN-γ-Percp-cy5.5 / Il-17A-FITC: 2.65; CNS: IFN-γ-Percp-cy5.5 / Il-17A-FITC: 77.7; CNS: IFN-γ-Percp-cy5.5 / Il-17A-FITC: 5.79 DOUBTS OF THE COPYIST ABOUT THIS PICTURE: Panels E and F: the gate and quadrant numbers in the dot plots are printed with no measure or unit; the tissue heading and the axis labels of each plot are written in front of them. For the quadrant plots the order is upper left, upper right, lower left, lower right. / Panels E and F: the gate numbers are in small print, so 3, 5, 6, 8 and 9 are best readings: E scrPEP 78.2, 7.38, 4.67, 0.18, 94.7; E Dleu2-17aa 37.2, 12.9, 2.83, 0.26, 96.1, 0.79; F scrPEP 9.03, 8.47, 22.9, 69.7, 5.44; F Dleu2-17aa 3.33, 15.5, 13.9, 2.65, 5.79.
For active EAE immunization, myelin oligodendrocyte glycoprotein peptide (MOGp35–55, […], GenScript) was emulsified in complete Freund adjuvant (Sigma-Aldrich). An equivalent of 300 μg MOG peptide was injected per mouse subcutaneously followed by 200 ng of pertussis toxin (Merck-Calbiochem) injection intravenously on day 0 and day 2 of immunization. […]

ARGPARRMRGGRRRRLR [scrPEP, scrambled control peptide of Dleu2-17aa]
CD62LloCD44+/ CD4+ Cells(%) (replicate 1): 58.3%
Foxp3+/ CD4+ Cells (%) (replicate 1): 7.65%
IFN-γ+/ CD4+ Cells(%) (replicate 1): 4.58%
CD62LloCD44+/ CD4+ Cells(%) (replicate 2): 60.9%
Foxp3+/ CD4+ Cells (%) (replicate 2): 6.51%
IFN-γ+/ CD4+ Cells(%) (replicate 2): 4.35%
CD62LloCD44+/ CD4+ Cells(%) (replicate 3): 61.3%
Foxp3+/ CD4+ Cells (%) (replicate 3): 6.5%
IFN-γ+/ CD4+ Cells(%) (replicate 3): 4.11%
CD62LloCD44+/ CD4+ Cells(%) (replicate 4): 78.2%
Foxp3+/ CD4+ Cells (%) (replicate 4): 6.85%
IFN-γ+/ CD4+ Cells(%) (replicate 4): 4.28%
